Measurements published in PubChem BioAssay AID1963856 (Molecular Pharmacology Branch, DTP, NCI, 2024).

System: LG0567-F671-PDC KRAS tumor spheroid viability
Assay: Anticancer human tumor LG0567-F671-PDC patient-derived lung adenocarcinoma cell line growth inhibition [KRAS2]
Settings: spheroids with HUVEC and MSC; for IC50: curve of first compound; for viability, T/C: stronger effect = lower value
How it was run: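 Combination screen of spheroid viability in tumor-cell co-cultures with endothelial (HUVEC) and mesenchymal stem cell stroma. Each agent was tested in half-log dilutions, topping at clinical Cmax or at 10 microM without a known Cmax.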

[1] = second compound 0.1 µM, first compound 0.0316 µM
[2] = second compound 0.1 µM, first compound 0.1 µM
[3] = second compound 0.1 µM, first compound 0.316 µM
[4] = second compound 0.1 µM, first compound 1 µM
[5] = second compound 0.1 µM, first compound 3.16 µM
[6] = second compound 0.1 µM, first compound 10 µM
[7] = second compound 0.316 µM, first compound 0.0316 µM
[8] = second compound 0.316 µM, first compound 0.1 µM
[9] = second compound 0.316 µM, first compound 0.316 µM
[10] = second compound 0.316 µM, first compound 1 µM
[11] = second compound 0.316 µM, first compound 3.16 µM
[12] = second compound 0.316 µM, first compound 10 µM
[13] = second compound 1 µM, first compound 0.0316 µM
[14] = second compound 1 µM, first compound 0.1 µM
[15] = second compound 1 µM, first compound 0.316 µM
[16] = second compound 1 µM, first compound 1 µM
[17] = second compound 1 µM, first compound 3.16 µM
[18] = second compound 1 µM, first compound 10 µM
[19] = second compound 3.16 µM, first compound 0.0316 µM
[20] = second compound 3.16 µM, first compound 0.1 µM
[21] = second compound 3.16 µM, first compound 0.316 µM
[22] = second compound 3.16 µM, first compound 1 µM
[23] = second compound 3.16 µM, first compound 3.16 µM
[24] = second compound 3.16 µM, first compound 10 µM
[25] = second compound 10 µM, first compound 0.0316 µM
[26] = second compound 10 µM, first compound 0.1 µM
[27] = second compound 10 µM, first compound 0.316 µM
[28] = second compound 10 µM, first compound 1 µM
[29] = second compound 10 µM, first compound 3.16 µM
[30] = second compound 10 µM, first compound 10 µM
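Further: drug exposure lasted seven days after spheroids formed for three days.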
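Wherever viability, T/C is given: 100% = DMSO vehicle control viability.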

Compound | IC50 (second compound 0.1 µM) [nM] | IC50 (second compound 0.316 µM) [nM] | IC50 (second compound 1 µM) [nM] | IC50 (second compound 3.16 µM) [nM] | IC50 (second compound 10 µM) [nM] | viability, T/C [1] [%] | viability, T/C [2] [%] | viability, T/C [3] [%] | viability, T/C [4] [%] | viability, T/C [5] [%] | viability, T/C [7] [%] | viability, T/C [8] [%] | viability, T/C [9] [%] | viability, T/C [10] [%] | viability, T/C [11] [%] | viability, T/C [13] [%] | viability, T/C [14] [%] | viability, T/C [15] [%] | viability, T/C [16] [%] | viability, T/C [17] [%] | also measured
CC1OCC2(CCN(c3cnc(Sc4ccnc(N)c4Cl)c(N)n3)CC2)C1N (stereo not given) + COc1cc2nc(C)nc(NC(C)c3cc(N)cc(C(F)(F)F)c3)c2cc1OC1CCOC1 | 62.2 | 55.5 | 68.1 | 57.7 | 56.2 | 61.9 | 40.3 | 30.6 | 27.5 | 23.1 | 58 | 41.6 | 30.6 | 25.8 | 21.7 | 61.5 | 43.6 | 32 | 26.3 | 19.2 | viability, T/C [6]: 15.3%; viability, T/C [12]: 16%; viability, T/C [18]: 13.5%; viability, T/C [19]: 58.1%; viability, T/C [20]: 42.3%; viability, T/C [21]: 32%; viability, T/C [22]: 25.4%; viability, T/C [23]: 19.2%; viability, T/C [24]: 13.6%; viability, T/C [25]: 52.7%; viability, T/C [26]: 47.4%; viability, T/C [27]: 28.9%; viability, T/C [28]: 20.2%; viability, T/C [29]: 19.5%; viability, T/C [30]: 16%
COC(=O)c1ccc2c(C(=Nc3ccc(N(C)C(=O)CN4CCN(C)CC4)cc3)c3ccccc3)c(O)[nH]c2c1 + COc1cc2nc(C)nc(NC(C)c3cc(N)cc(C(F)(F)F)c3)c2cc1OC1CCOC1 | > 10000 | > 10000 | > 10000 | 4080 | 1590 | 112 | 76.2 | 65.9 | 85.8 | 83.8 | 60.2 | 51.6 | 58.8 | 71.2 | 61.7 | 72.3 | 66.3 | 61.5 | 71.1 | 66.4 | viability, T/C [6]: 69.5%; viability, T/C [12]: 64.1%; viability, T/C [18]: 61.4%; viability, T/C [19]: 73.8%; viability, T/C [20]: 75.2%; viability, T/C [21]: 66.7%; viability, T/C [22]: 71.8%; viability, T/C [23]: 64.2%; viability, T/C [24]: 0.24%; viability, T/C [25]: 78.7%; viability, T/C [26]: 81.1%; viability, T/C [27]: 82.3%; viability, T/C [28]: 79%; viability, T/C [29]: 6.56%; viability, T/C [30]: 1.03%
CC1COCCN1c1cc(-c2ccnn2C)c2ccnc(-c3ccn[nH]3)c2n1 (stereo not given) + CNCc1ccccc1-c1csc(C(C)Nc2nc(C)nc3cc(OC)c(OC)cc23)c1 | > 3160 | 372 | 41.4 | 160 | < 10 | 74.4 | 60.2 | 58.9 | 48.6 | 54 | 77.7 | 60.6 | 50.6 | 46 | 49.2 | 50.7 | 42.6 | 41.4 | 34.7 | 33.4 | viability, T/C (second compound 0.1 µM, first compound 0.01 µM): 87.1%; viability, T/C (second compound 0.316 µM, first compound 0.01 µM): 85.9%; viability, T/C (second compound 1 µM, first compound 0.01 µM): 68%; viability, T/C (second compound 3.16 µM, first compound 0.01 µM): 65.6%; viability, T/C [19]: 58.5%; viability, T/C [20]: 61.6%; viability, T/C [21]: 29.8%; viability, T/C [22]: 33.2%; viability, T/C [23]: 36.2%; viability, T/C (second compound 10 µM, first compound 0.01 µM): 0.18%; viability, T/C [25]: 0.17%; viability, T/C [26]: 0.15%; viability, T/C [27]: 0.17%; viability, T/C [28]: 0.74%; viability, T/C [29]: 0.24%
CC(C)NCC(C(=O)N1CCN(c2ncnc3c2C(C)CC3O)CC1)c1ccc(Cl)cc1 (stereo not given) + C=CC(=O)N1CCN(c2nc(=O)n(-c3c(C)ccnc3C(C)C)c3nc(-c4c(O)cccc4F)c(F)cc23)C(C)C1 | < 31.6 | < 31.6 | < 31.6 | < 31.6 | < 31.6 | 31.4 | 25.9 | 19.8 | 14 | 14.5 | 26.5 | 28.5 | 20.9 | 13.7 | 13.7 | 30.6 | 26.5 | 17 | 15.9 | 14.4 | viability, T/C [6]: 12.8%; viability, T/C [12]: 10.6%; viability, T/C [18]: 12.6%; viability, T/C [19]: 29.9%; viability, T/C [20]: 21.2%; viability, T/C [21]: 19.9%; viability, T/C [22]: 19.1%; viability, T/C [23]: 13.3%; viability, T/C [24]: 11.3%; viability, T/C [25]: 25.8%; viability, T/C [26]: 17%; viability, T/C [27]: 15.6%; viability, T/C [28]: 13.3%; viability, T/C [29]: 15%; viability, T/C [30]: 11%
